Calls of active or inactive are those of the source. The calls are words filed in the database; no cut-off is given here. Non-standard residues stand in square brackets, D forms with d. Residues, ends and D or L forms follow the SMILES beside them. Groups on a side chain read outwards from the residue. *: point of attachment. BODIPY(FL) = CC1=CC(C)=[N+]2C1=Cc1ccc(CCC(=O)*)n1[B-]2(F)F; NMeK = CN[C@@H](CCCCN)C(=O)O; Ahx = NCCCCCC(=O)O
What was measured:
[1] = Stability in 90% human serum assessed as drug degradation at 1 mM after 60 mins by HPLC analysis; assay type: ADME, cell-free; conditions: read-out: Drug degradation
[2] = Stability in 90% human serum assessed as drug degradation at 1 mM after 15 mins by HPLC analysis; assay type: ADME, cell-free; conditions: read-out: Drug degradation
Integrin alpha-V/beta-8 [3] = molecular target: T1, Integrin alpha-V/beta-8 (Homo sapiens, UniProt P06756+P26012); assay: Binding affinity to alphavbeta8 in human HN cells assessed as fluorescence intensity at 10 uM after 1 hr using BDP FL-labeled compound by immunocytochemical analysis; assay type: cell-based
Integrin alpha-V/beta-8 [4] = molecular target: T1, Integrin alpha-V/beta-8; assay: Binding affinity to alphavbeta8 in human BHY cells assessed as fluorescence intensity at 10 uM after 1 hr using BDP FL-labeled compound by immunocytochemical analysis; assay type: cell-based
Integrin alpha-V/beta-8 [5] = molecular target: T1, Integrin alpha-V/beta-8; assay: Binding affinity to alphavbeta8 in human REC cells assessed as fluorescence intensity at 10 uM after 1 hr using BDP FL-labeled compound by immunocytochemical analysis; assay type: cell-based
Integrin alpha-5/beta-1 = Integrin alpha-5/beta-1 (Homo sapiens, UniProt P05556+P08648); assay: Inhibition of human fibronectin binding to human integrin alpha5beta1 receptor after 1 hr by solid-phase binding assay; assay type: protein-complex assay
[6] = molecular target: Integrin alpha-IIb/beta-3 (Homo sapiens, UniProt P05106+P08514); assay: Inhibition of human fibrinogen binding to human platelet integrin alpha2b-beta3 receptor after 1 hr by solid-phase binding assay
Homo sapiens = species: Homo sapiens; assay: Selectivity ratio of IC50 for human integrin alphavbeta6 receptor to IC50 for human integrin alphavbeta8 receptor
Integrin alpha-V/beta-6 = Integrin alpha-V/beta-6 (Homo sapiens, UniProt P06756+P18564); assay: Inhibition of LAP binding to human integrin alphavbeta6 receptor after 1 hr by solid-phase binding assay; assay type: protein-complex assay; conditions: read-out: IC50
Sequence of Integrin alpha-V/beta-6 (P06756 31-889 limits assumed): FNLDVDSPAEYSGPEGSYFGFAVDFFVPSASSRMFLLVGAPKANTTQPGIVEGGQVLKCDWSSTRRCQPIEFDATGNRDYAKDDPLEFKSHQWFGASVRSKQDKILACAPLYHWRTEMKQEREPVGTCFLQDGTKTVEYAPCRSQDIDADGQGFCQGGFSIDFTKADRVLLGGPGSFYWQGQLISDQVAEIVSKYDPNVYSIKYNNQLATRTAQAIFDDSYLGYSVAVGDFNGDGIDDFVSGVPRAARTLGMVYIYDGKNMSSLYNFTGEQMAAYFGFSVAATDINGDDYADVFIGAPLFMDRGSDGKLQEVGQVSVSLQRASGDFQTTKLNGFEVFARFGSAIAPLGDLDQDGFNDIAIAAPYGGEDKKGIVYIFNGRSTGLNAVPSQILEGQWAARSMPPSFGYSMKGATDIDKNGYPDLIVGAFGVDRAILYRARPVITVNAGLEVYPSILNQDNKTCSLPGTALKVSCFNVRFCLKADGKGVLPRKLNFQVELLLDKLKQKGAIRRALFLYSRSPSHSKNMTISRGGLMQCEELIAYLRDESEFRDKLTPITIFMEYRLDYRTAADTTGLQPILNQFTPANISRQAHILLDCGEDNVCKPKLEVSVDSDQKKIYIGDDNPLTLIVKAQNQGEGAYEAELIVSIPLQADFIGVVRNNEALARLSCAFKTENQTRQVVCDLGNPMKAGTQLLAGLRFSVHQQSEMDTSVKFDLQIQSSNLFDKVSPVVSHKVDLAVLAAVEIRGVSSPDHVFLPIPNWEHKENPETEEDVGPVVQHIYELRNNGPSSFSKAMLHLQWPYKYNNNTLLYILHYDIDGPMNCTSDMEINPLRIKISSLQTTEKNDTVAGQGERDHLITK
Sequence of Integrin alpha-V/beta-6 (P06756 891-1048 limits assumed): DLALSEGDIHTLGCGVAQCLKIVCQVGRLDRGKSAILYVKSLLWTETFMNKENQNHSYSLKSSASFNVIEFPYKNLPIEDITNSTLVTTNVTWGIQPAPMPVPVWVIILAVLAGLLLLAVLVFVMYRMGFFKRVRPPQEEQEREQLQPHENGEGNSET
Sequence of Integrin alpha-V/beta-6 (P18564 22-788 limits assumed): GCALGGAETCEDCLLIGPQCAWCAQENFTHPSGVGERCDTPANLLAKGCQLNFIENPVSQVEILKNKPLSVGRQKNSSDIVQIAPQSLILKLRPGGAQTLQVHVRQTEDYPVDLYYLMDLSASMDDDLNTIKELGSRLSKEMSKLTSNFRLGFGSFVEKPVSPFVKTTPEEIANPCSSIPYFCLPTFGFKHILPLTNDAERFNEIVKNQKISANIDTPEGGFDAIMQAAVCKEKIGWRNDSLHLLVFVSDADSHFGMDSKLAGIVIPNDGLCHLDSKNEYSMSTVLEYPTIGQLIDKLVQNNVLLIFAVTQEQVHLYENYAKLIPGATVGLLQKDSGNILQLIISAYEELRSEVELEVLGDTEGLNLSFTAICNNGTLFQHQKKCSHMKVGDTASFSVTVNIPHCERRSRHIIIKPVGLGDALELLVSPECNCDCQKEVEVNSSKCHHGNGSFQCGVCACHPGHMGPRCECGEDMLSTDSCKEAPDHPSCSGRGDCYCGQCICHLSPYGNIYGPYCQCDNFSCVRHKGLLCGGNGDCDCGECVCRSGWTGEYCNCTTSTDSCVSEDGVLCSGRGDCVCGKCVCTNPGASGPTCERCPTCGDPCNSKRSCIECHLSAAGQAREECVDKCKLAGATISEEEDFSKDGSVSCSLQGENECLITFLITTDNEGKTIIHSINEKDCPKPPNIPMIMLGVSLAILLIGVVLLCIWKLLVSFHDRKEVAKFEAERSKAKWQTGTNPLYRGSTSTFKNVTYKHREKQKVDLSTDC

Integrin alpha-V/beta-5 = Integrin alpha-V/beta-5 (Homo sapiens, UniProt P06756+P18084); assay: Inhibition of human vitronectin binding to human integrin alphavbeta5 receptor after 1 hr by solid-phase binding assay; assay type: protein-complex assay
Sequence of Integrin alpha-V/beta-5 (P06756 31-889 limits assumed): as the sequence (P06756 31-889 limits assumed) above
Sequence of Integrin alpha-V/beta-5 (P06756 891-1048 limits assumed): as the sequence (P06756 891-1048 limits assumed) above
Sequence of Integrin alpha-V/beta-5 (P18084 24-799 limits assumed): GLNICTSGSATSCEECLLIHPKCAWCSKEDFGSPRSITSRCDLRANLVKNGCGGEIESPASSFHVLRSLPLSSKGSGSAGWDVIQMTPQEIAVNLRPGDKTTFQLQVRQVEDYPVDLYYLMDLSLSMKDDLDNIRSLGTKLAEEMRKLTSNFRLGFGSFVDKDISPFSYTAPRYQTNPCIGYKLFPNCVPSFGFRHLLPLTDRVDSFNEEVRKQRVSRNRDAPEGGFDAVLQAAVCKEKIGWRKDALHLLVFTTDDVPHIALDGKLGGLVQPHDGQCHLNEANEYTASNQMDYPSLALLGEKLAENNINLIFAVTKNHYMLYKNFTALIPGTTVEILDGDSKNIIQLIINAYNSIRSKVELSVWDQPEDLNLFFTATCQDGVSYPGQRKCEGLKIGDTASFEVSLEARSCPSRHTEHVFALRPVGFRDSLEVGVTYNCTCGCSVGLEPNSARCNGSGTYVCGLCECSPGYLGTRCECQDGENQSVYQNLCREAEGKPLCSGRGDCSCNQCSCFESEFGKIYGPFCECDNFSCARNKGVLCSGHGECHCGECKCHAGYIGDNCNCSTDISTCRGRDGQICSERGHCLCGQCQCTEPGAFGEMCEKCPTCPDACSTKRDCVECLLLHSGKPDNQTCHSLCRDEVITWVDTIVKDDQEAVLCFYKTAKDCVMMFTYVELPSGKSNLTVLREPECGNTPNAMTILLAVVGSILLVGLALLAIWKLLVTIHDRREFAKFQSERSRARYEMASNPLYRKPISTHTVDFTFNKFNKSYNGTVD

Integrin alpha-V/beta-8 [7] = molecular target: T1, Integrin alpha-V/beta-8; assay: Inhibition of LAP binding to human integrin alphavbeta8 receptor after 1 hr by solid-phase binding assay; assay type: protein-complex assay; conditions: read-out: IC50
Target sequence in this assay (P06756 31-889 limits assumed): as the sequence (P06756 31-889 limits assumed) above
Target sequence in this assay (P06756 891-1048 limits assumed): as the sequence (P06756 891-1048 limits assumed) above
Target sequence in this assay (P26012 43-769 limits assumed): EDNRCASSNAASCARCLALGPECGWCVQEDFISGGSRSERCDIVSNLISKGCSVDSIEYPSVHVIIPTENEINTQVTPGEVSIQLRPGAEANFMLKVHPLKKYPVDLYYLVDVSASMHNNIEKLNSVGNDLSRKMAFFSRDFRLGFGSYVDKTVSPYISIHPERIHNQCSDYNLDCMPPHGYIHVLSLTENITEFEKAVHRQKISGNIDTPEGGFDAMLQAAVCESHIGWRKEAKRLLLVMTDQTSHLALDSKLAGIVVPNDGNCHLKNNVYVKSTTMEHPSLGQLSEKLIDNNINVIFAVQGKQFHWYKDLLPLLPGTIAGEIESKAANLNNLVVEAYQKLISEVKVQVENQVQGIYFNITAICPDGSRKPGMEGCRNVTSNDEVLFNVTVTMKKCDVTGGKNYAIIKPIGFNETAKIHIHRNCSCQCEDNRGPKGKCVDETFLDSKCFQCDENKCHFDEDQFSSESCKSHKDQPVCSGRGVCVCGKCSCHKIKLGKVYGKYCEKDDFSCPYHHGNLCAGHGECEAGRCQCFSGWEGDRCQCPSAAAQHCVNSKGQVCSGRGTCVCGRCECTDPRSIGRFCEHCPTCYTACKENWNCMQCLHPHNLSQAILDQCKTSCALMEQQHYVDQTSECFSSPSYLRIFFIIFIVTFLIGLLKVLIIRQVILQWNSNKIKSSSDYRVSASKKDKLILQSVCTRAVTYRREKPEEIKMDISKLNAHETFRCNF

Integrin alpha-V/beta-3 = Integrin alpha-V/beta-3 (Homo sapiens, UniProt P05106+P06756); assay: Inhibition of human vitronectin binding to human integrin alphavbeta3 receptor after 1 hr by solid-phase binding assay; assay type: protein-complex assay
Sequence of Integrin alpha-V/beta-3 (P05106 27-788 limits assumed): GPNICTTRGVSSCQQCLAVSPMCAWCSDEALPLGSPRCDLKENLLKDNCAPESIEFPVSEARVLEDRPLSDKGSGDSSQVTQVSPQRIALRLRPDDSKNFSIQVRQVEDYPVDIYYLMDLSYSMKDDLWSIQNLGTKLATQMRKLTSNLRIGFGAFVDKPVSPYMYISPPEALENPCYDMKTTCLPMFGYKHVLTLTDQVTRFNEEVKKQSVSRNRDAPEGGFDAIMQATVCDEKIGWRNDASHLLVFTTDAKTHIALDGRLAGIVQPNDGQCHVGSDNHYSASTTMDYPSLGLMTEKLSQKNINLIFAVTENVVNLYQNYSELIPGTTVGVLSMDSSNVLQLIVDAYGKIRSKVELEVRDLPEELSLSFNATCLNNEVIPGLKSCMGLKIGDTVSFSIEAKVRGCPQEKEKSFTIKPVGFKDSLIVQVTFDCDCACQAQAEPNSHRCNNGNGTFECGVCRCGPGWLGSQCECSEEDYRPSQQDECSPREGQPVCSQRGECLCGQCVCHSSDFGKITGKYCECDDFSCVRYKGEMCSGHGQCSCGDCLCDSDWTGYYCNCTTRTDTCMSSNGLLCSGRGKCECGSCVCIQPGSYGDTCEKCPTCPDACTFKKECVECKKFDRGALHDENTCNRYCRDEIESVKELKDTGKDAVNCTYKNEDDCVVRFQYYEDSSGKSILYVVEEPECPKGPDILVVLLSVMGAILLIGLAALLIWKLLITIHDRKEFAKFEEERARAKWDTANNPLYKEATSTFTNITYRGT
Sequence of Integrin alpha-V/beta-3 (P06756 31-889 limits assumed): as the sequence (P06756 31-889 limits assumed) above
Sequence of Integrin alpha-V/beta-3 (P06756 891-1048 limits assumed): as the sequence (P06756 891-1048 limits assumed) above

Integrin alpha-V/beta-8 [8] = molecular target: T1, Integrin alpha-V/beta-8; assay: Binding affinity to alphavbeta8 in TGF-beta1 stimulated human BHY cells assessed as fluorescence intensity at 10 uM after 1 hr using in presence of 5 to 100 molar excess peptide 1a by immunocytochemical analysis relative to control; assay type: cell-based
Integrin alpha-V/beta-8 [9] = molecular target: T1, Integrin alpha-V/beta-8; assay: Binding affinity to alphavbeta8 in TGF-beta1 stimulated human HN cells assessed as fluorescence intensity at 10 uM after 1 hr using in presence of 10 to 20 molar excess peptide 2 by immunocytochemical analysis relative to control
Integrin alpha-V/beta-8 [10] = molecular target: T1, Integrin alpha-V/beta-8; assay: Binding affinity to alphavbeta8 in TGF-beta1 stimulated human BHY cells assessed as fluorescence intensity at 10 uM after 1 hr using fluorescence-labeled compound in presence of 10 molar excess peptide 2 by immunocytochemical analysis; assay type: cell-based
Integrin alpha-V/beta-8 [11] = molecular target: T1, Integrin alpha-V/beta-8; assay: Binding affinity to alphavbeta8 in TGF-beta1 stimulated human REC cells assessed as fluorescence intensity at 10 uM after 1 hr using fluorescence-labeled compound by immunocytochemical analysis
Integrin alpha-V/beta-8 [12] = molecular target: T1, Integrin alpha-V/beta-8; assay: Binding affinity to alphavbeta8 in TGF-beta1 stimulated human BHY cells assessed as fluorescence intensity at 10 uM after 1 hr using fluorescence-labeled compound in presence of 10 molar excess peptide 1a by immunocytochemical analysis; assay type: cell-based
[13] = Stability in 90% human serum assessed as drug degradation at 1 mM after 180 mins by HPLC analysis; assay type: ADME, cell-free; conditions: 3 h, 1000 µM

Row | IC50 [6] | Ratio IC50 (Homo sapiens) | IC50 (Integrin alpha-V/beta-6) | IC50 (Integrin alpha-V/beta-5) | IC50 (Integrin alpha-V/beta-8 [7]) | Compound | IC50 (Integrin alpha-5/beta-1) | IC50 (Integrin alpha-V/beta-3) | also measured
1 | – | – | – | – | – | CC(C)C[C@H](NC(=O)[C@H](CO)NC(=O)[C@H](CC(=O)O)NC(=O)[C@H](CC(C)C)NC(=O)[C@H](CC(=O)O)NC(=O)[C@@H](NC(=O)[C@@H](N)CCCNC(=N)N)[C@@H](C)O)C(=O)N[C@@H](CCCNC(=N)N)C(=O)N[C@H](C(=O)O)[C@@H](C)O | – | – | metabolised at 1 h, 1000 µM [1]: 100%; metabolised at 0.25 h, 1000 µM [2]: 56%
2 | – | – | – | – | – | CC1=CC(C)=[N+]2C1=Cc1ccc(CCC(=O)NCCCCCC(=O)NCCCC[C@@H]3NC(=O)[C@@H](Cc4ccccc4)NC(=O)[C@H](CC(=O)O)NC(=O)CCNC(=O)[C@H](CCCNC(=N)N)NC3=O)n1[B-]2(F)F | – | – | Activity (Integrin alpha-V/beta-8 [3]): inactive; Activity (Integrin alpha-V/beta-8 [4]): inactive; Activity (Integrin alpha-V/beta-8 [5]): inactive
3 | > 1000 nM | – | – | > 1000 nM | – | CC(C)C[C@@H]1NC(=O)[C@H](CC(=O)O)NC(=O)CNC(=O)[C@H](CCCNC(=N)N)NC(=O)[C@H](Cc2ccccc2)NC(=O)[C@H](CCCCN)N(C)C(=O)[C@H]2CCCN2C(=O)[C@H](Cc2ccccc2)NC(=O)[C@H](C)NC1=O | – | – | –
4 | > 1000 nM | – | – | > 1000 nM | – | CC(C)C[C@@H]1NC(=O)[C@H](CC(=O)O)NC(=O)CNC(=O)[C@H](CCCNC(=N)N)NC(=O)[C@H](C)NC(=O)[C@@H]2CCCN2C(=O)[C@H]2CCCN2C(=O)[C@H](Cc2ccccc2)NC(=O)[C@H](C)NC1=O (cyclo(ARGDLAF[dP]P)) | – | – | –
5 | > 1000 nM | 12 | 99 nM | > 1000 nM | 8 nM | CC(=O)NCCCC[C@H]1C(=O)NCC(=O)N[C@@H](CC(C)C)C(=O)N[C@@H](CCCNC(=N)N)C(=O)NCC(=O)N[C@@H](CC(=O)O)C(=O)N[C@@H](CC(C)C)C(=O)N2CCC[C@@H]2C(=O)N1C (cyclo(RGDL[dP][NMeK](Ac)GL)) | > 1000 nM | 343 nM | Stability [13]: Stable
6 | – | 24 | 31.8 nM | – | 1.31 nM | CC(C)C[C@@H]1NC(=O)[C@H](C)NC(=O)[C@@H]2CCCN2C(=O)[C@H]2CCCN2C(=O)[C@H](CC(C)C)NC(=O)[C@H](CC(=O)O)NC(=O)CNC(=O)[C@H](CCCNC(=N)N)NC1=O (cyclo(RGDL[dP]PAL)) | – | – | –
7 | – | 4.6 | 29.6 nM | – | 6.4 nM | CC(C)C[C@@H]1NC(=O)[C@H](CC(=O)O)NC(=O)CNC(=O)[C@H](CCCNC(=N)N)NC(=O)[C@H](c2ccccc2)NC(=O)[C@H](C)NC(=O)[C@@H]2CCCN2C(=O)[C@H]2CCCN2C1=O | – | – | –

Row | Compound | IC50 [6] | Ratio IC50 (Homo sapiens) | IC50 (Integrin alpha-V/beta-6) | IC50 (Integrin alpha-V/beta-5) | IC50 (Integrin alpha-V/beta-8 [7]) | IC50 (Integrin alpha-5/beta-1) | IC50 (Integrin alpha-V/beta-3) | also measured
8 | CC(C)C[C@@H]1NC(=O)CNC(=O)[C@@H]2CCCN2C(=O)[C@H]2CCCN2C(=O)[C@H](CC(C)C)NC(=O)[C@H](CC(=O)O)NC(=O)CNC(=O)[C@H](CCCNC(=N)N)NC1=O (cyclo(RGDL[dP]PGL)) | > 1000 nM | 36 | 160 nM | > 1000 nM | 4.5 nM | > 1000 nM | > 1000 nM | –
9 | CC1=CC(C)=[N+]2C1=Cc1ccc(CCC(=O)NCCCCCC(=O)NCCCC[C@H]3C(=O)NCC(=O)N[C@@H](CC(C)C)C(=O)N[C@@H](CCCNC(=N)N)C(=O)NCC(=O)N[C@@H](CC(=O)O)C(=O)N[C@@H](CC(C)C)C(=O)N4CCC[C@@H]4C(=O)N3C)n1[B-]2(F)F (cyclo(RGDL[dP][NMeK]([Ahx-BODIPY(FL)])GL)) | > 1000 nM | – | 47 nM | > 1000 nM | 0.06 nM | 689 nM | 43 nM | Activity (Integrin alpha-V/beta-8 [3]): Active; Activity (Integrin alpha-V/beta-8 [8]): inactive; Activity (Integrin alpha-V/beta-8 [4]): Active; Activity (Integrin alpha-V/beta-8 [9]): 50%; Activity (Integrin alpha-V/beta-8 [10]): inactive; Activity (Integrin alpha-V/beta-8 [5]): Active; Activity (Integrin alpha-V/beta-8 [11]): Active; Activity (Integrin alpha-V/beta-8 [12]): inactive
